From US6867185B2 (Bristol-Myers Squibb Company, priority 2001, dated 2005) come the findings set out here.

Structures can show the parent of a compound that is named as a salt.

Assay [1] addresses T1, HCV NS3/4A protease complex, BMS strain (genotype 1a) (Hepatitis C virus genotype 1a, UniProt P27958, C1454S/C1711G).
T1 construct: recombinant HCV NS3/4A protease complex (amino'acids 1027 to 1711); inferred from the pET21b vector and Ni-NTA purification; made in house; host or cells: Escherichia coli BL21 (DE3), pET21b
In words: Recombinant HCV NS3/4A protease complex FRET peptide assay (BMS strain). Format: biochemical. The note with it: IC50, HCV NS3/4A protease FRET assay in vitro; IC50 ranges. An excerpt:
The purpose of this in vitro assay was to measure the inhibition of HCV NS3 protease complexes, derived from the BMS, H77C or J4L6S strains, as described below, by compounds of the present invention. This assay provides an indication of how effective compounds of the present invention would be in inhibiting HCV proteolytic activity.
Serum from an HCV-infected patient was obtained from Dr. T. Wright, San Francisco Hospital. An engineered full-length cDNA (compliment deoxyribonucleic acid) template of the HCV genome (BMS strain) was constructed from DNA fragments obtained by reverse transcription-PCR (RT-PCR) of serum RNA (ribonucleic acid) and using primers selected on the basis of homology between other genotype 1a strains. From the determination of the entire genome sequence, a genotype 1a was assigned to the HCV isolate according to the classification of Simmonds et al. (See P Simmonds, K A Rose, S Graham, S W Chan, F McOmish, B C Dow, E A Follett, P L Yap and H Marsden, J. Clin. Microbiol., 31 (6), 1493-1503 (1993)). […] The infectious clones, H77C (1a genotype) and J4L6S (1b genotype) were obtained from R. Purcell (N1H) and the sequences are published in Genbank (AAB67036, see Yanagi, M., Purcell, R. H., Emerson, S. U. and Bukh, J. Proc. Natl. Acad. Sci. U.S.A. 94 (16), 8738-8743 (1997); AF054247, see Yanagi, M., St Claire, M., Shapiro, M., Emerson, S. U., Purcell, R. H. and Bukh, J, Virology 244 (1), 161-172. (1998)).
The BMS, H77C and J4L6S strains were used for production of recombinant NS3/4A protease complexes. DNA encoding the recombinant HCV NS3/4A protease complex (amino'acids 1027 to 1711) for these strains were manipulated as described by P. Gallinari et al. (see Gallinari P, Paolini C, Brennan D, Nardi C, Steinkuhler C, De Francesco R. Biochemistry. 38 (17):5620-32, (1999)). Briefly, a three-lysine solubilizing tail was added at the 3′-end of the NS4A coding region. The cysteine in the P1 position of the NS4A-NS4B cleavage site (amino acid 1711) was changed to a glycine to avoid the proteolytic cleavage of the lysine tag. Furthermore, a cysteine to serine mutation was introduced by PCR at amino acid position 1454 to prevent the autolytic cleavage in the NS3 helicase domain. The variant DNA fragment was cloned in the pET21b bacterial expression vector (Novagen)and the NS3/4A complex was expressed in Escherichia. coli strain BL21 (DE3) (Invitrogen) following the protocol described by P. Gallinari et al. (see Gallinari P, Brennan D, Nardi C, Brunetti M, Tomei L, Steinkuhler C, De Francesco R., J. Virol. 72 (8):6758-69 (1998)) with modifications. Briefly, NS3/4A expression was induced with 0.5 mM Isopropyl β-D-1-thiogalactopyranoside (IPTG) for 22 hr at 20° C. A typical fermentation (10L) yielded approximately 80 g of wet cell paste. The cells were resuspended in lysis buffer (10 mL/g) consisting of 25 mM N-(2-Hydroxyethyl)Piperazine-N′-(2-Ethane Sulfonic acid) (HEPES), pH 7.5, 20% glycerol, 500 mM Sodium Chloride (NaCl), 0.5% Triton-X100, 1 ug/ml lysozyme, 5 mM Magnesium Chloride (MgCl2), 1 ug/ml Dnasel, 5 mM β-Mercaptoethanol (OME), Protease inhibitor-Ethylenediamine Tetraacetic acid (EDTA) free (Roche), homogenized and incubated for 20 mins at 4° C. The homogenate was sonicated and clarified by ultra-centrifugation at 235000 g for 1 hr at 4° C. Imidazole was added to the supernatant to a final concentration of 15 mM and the pH adjusted to 8.0. The crude protein extract was loaded on a Nickel-Nitrilotriacetic acid (Ni-NTA) column pre-equilibrated with buffer B (25 mM HEPES, pH 8.0, 20% glycerol, 500 mM NaCl, 0.5% Triton-X100, 15 mM imidazole, 5 mM βME). The sample was loaded at a flow rate of 1 mL/min. The column was washed with 15 column volumes of buffer C (same as buffer B except with 0.2% Triton-X100). The protein was eluted with 5 column volumes of buffer D (same as buffer C except with 200 mM Imidazole). […]

Assay [2] deals with HCV replicon in Huh7 cells. In words: HCV replicon cell-based assay (replicon FRET assay). The settings on record: Hepatitis C virus, Huh-7, HCV replicon cell assay; EC50 ranges. On the set-up: species or system HCV strain 1B. An excerpt: An HCV replicon whole cell system was established as described by Lohmann V, Korner F, Koch J, Herian U, Theilmann L, Bartenschlager R., Science 285 (5424):110-3 (1999). This system enabled us to evaluate the effects of our HCV Protease compounds on HCV RNA replication. Briefly, using the HCV strain 1B sequence described in the Lohmann paper (Assession number:AJ238799), an HCV cDNA was generated encoding the 5′ internal ribosome entry site (IRES), the neomycin resistance gene, the EMCV (encephalomyocarditis viurs)-IRES and the HCV nonstructural proteins, NS3-NS5B, and 3′ non-translated region (NTR). In vitro transcripts of the cDNA were transfected into the human hepatoma cell line, Huh7. […] Resulting cell lines were characterized for positive and negative strand RNA production and protein production over time.
Huh7 cells, constitutively expressing the HCV replicon, were grown in Dulbecco's Modified Eagle Media (DMEM) containing 10% Fetal calf serum (FCS) and 1 mg/ml G418 (Gibco-BRL). Cells were seeded the night before (1.5×10^4 cells/well) in 96-well tissue-culture sterile plates. Compound and no compound controls were prepared in DMEM containing 4% FCS, 1:100 Penicillin/Streptomysin, 1:100 L-glutamine and 5% DMSO in the dilution plate (0.5% DMSO final concentration in the assay). Compound/DMSO mixes were added to the cells and incubated for 4 days at 37° C. After 4 days, plates were rinsed thoroughly with Phosphate-Buffered Saline (PBS) (3 times 150 μl). The cells were lysed with 25 μl of a lysis assay reagent containing the FRET peptide (RET S1, as described for the in vitro enzyme assay). The lysis assay reagent was made from 5× cell Luciferase cell culture lysis reagent(Promega #E153A) diluted to 1× with distilled water, NaCl added to 150 mM final, the FRET peptide diluted to 10 μM final from a 2 mM stock in 100% DMSO. The plate was then placed into the Cytofluor 4000 instrument which had been set to 340 nm excitation/490 emission, automatic mode for 21 cycles and the plate read in a kinetic mode. EC50 determinations were carried out as described for the IC50 determinations.
For orientation: In antiviral work, replicon cells carry a viral genome segment that copies itself.

T1 sequence (P27958 1027-1711 C1454S/C1711G, one chain of several): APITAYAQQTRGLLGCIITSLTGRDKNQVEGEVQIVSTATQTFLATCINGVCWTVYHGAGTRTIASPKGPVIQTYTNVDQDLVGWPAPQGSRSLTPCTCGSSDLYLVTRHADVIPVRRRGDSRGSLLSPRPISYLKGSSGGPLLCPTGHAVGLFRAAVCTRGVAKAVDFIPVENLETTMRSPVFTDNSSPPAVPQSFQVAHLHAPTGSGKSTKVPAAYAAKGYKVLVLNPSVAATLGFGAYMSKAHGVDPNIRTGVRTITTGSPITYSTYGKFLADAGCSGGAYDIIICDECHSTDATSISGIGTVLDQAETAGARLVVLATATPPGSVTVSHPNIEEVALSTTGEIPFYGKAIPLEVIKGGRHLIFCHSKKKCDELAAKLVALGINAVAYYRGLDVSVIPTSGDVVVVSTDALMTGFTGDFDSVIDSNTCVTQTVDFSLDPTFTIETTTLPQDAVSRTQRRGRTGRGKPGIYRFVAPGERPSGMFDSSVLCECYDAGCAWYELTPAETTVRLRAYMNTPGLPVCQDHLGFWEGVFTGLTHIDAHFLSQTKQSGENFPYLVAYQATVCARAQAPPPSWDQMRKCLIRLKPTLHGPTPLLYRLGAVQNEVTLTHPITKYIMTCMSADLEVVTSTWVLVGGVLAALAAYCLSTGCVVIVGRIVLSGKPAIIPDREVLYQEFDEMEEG

As usually defined, the IC50 is the concentration that inhibits the measured activity by half. The term EC50 denotes the midpoint of the concentration-response curve. For the molecule `COc1ccc2c(O[C@@H]3C[C@H]4C(=O)N[C@]5(C(=O)NS(=O)(=O)C6CC6)CC5/C=C\CCCCC[C@H](N)C(=O)N4C3)cc(-c3ccccc3)nc2c1` (stereo partly drawn) [Compound 10, (1S,4R,6S,14S,18R)-7-cis-Cyclopropane-sulfonic acid [14-amino-18-(7-methoxy-2-phenylquinol-in-4-yloxy)-2,15-dioxo-3,16-diazatricyclo[14.3.0.0^4,6]-nonadec-7-ene-4-carbonyl]amide dihydrochloride], the 50% inhibitory concentration (IC50) in assay [1] was below 50 nM. The molecule further displayed an EC50 in assay [2] below 50 nM.
For the molecule `COc1ccc2c(O[C@@H]3C[C@H]4C(=O)N[C@]5(C(=O)NS(=O)(=O)C6CC6)C[C@H]5/C=C\CCCCC[C@@H](NC(=O)OC(C)(C)C)C(=O)N4C3)ccnc2c1` [Compound 12], the half-inhibitory concentration (IC50) in assay [1] is below 500 nM. The 50% effective concentration (EC50) in assay [2] is below 500 nM.
With `COc1ccc2c(O[C@@H]3C[C@H]4C(=O)N[C@]5(C(=O)NS(=O)(=O)C6CC6)C[C@H]5CCCCCC[C@H](NC(=O)OC(C)(C)C)C(=O)N4C3)cc(-c3ccccc3)nc2c1` [Compound 13, (1S,4R,6R,13S,17R)-[4-Cyclopropanesulfonylaminocarbonyl-17-(7-methoxy-2-phenylquinolin-4-yloxy)-2,14-dioxo-3,15-diazatricyclo[13.3.0.0^4,6]-octadec-13-yl]-carbamic acid tert-butyl ester], in assay [1], the 50% inhibitory concentration (IC50) was below 50 nM. The molecule also gave an EC50 in assay [2] below 50 nM.
Consider `COc1ccc2c(O[C@@H]3C[C@H]4C(=O)N[C@]5(C(=O)NS(=O)(=O)C6CC6)C[C@H]5CCCCCC[C@H](N)C(=O)N4C3)cc(-c3ccccc3)nc2c1` [Compound 14, (1S,4R,6R,13S,17R)-Cyclopropanesulfonic acid [13-amino-17-(7-methoxy-2-phenylquinolin-4-yloxy)-2,14-dioxo-3,15-diazatricyclo[13.3.0.0^4,6]-octadecane-4-carbonyl]amide dihydrochloride], for which the half-maximal inhibitory concentration (IC50) in assay [1] is below 50 nM. The EC50 in assay [2] is below 50 nM.
Take `COc1ccc2c(O[C@@H]3C[C@H]4C(=O)N[C@]5(C(=O)NS(=O)(=O)C6CC6)C[C@H]5CCCCCCC[C@H](NC(=O)OC(C)(C)C)C(=O)N4C3)cc(-c3ccccc3)nc2c1` [Compound 15, (1S,4R,6R,14S,18R)-[4-Cyclopropanesulfonylaminocarbonyl-18-(7-methoxy-2-phenylquinolin-4-yloxy)-2,15-dioxo-3,16-diazatricyclo-[14.3.0.0^4,6]nonadec-14-yl]carbamic acid tert-butyl ester]: the IC50 in assay [1] was below 50 nM. In addition, in assay [2], the EC50 was below 50 nM.
As to `COc1ccc2c(O[C@@H]3C[C@H]4C(=O)N[C@]5(C(=O)NS(=O)(=O)C6CC6)C[C@H]5CCCCCCC[C@H](N)C(=O)N4C3)cc(-c3ccccc3)nc2c1` [Compound 16, (1S,4R,6R,14S,18R)-Cyclopropanesulfonic acid [14-amino-18-(7-methoxy-2-phenylquinolin-4-yloxy)-2,15-dioxo-3,16-diazatricyclo[14.3.0.0^4,6]-nonadecane-4-carbonyl]amide dihydrochloride], in assay [1], the IC50 is below 50 nM. In assay [2], this molecule returned a concentration giving a half-maximal response (EC50) below 50 nM.
With `COc1ccc2c(O[C@@H]3C[C@H]4C(=O)N[C@]5(C(=O)NS(=O)(=O)C6CCC6)C[C@H]5/C=C\CCCC[C@H](NC(=O)OC(C)(C)C)C(=O)N4C3)cc(-c3ccccc3)nc2c1` [Compound 17, (1S,4R,6S,13S,17R)-7-cis-[4-Cyclobutanesulfonylaminocarbonyl-17-(7-methoxy-2-phenylquinolin-4-yloxy)-2,14-dioxo-3,15-diazatricyclo[13.3.0.0^4,6]octadec-7-en-13-yl]carbamic acid tert-butyl ester], the 50% inhibitory concentration (IC50) in assay [1] was below 50 nM. Also, the 50% effective concentration (EC50) in assay [2] was below 500 nM.
Turning to `COc1ccc2c(O[C@@H]3C[C@H]4C(=O)N[C@]5(C(=O)NS(=O)(=O)C6CCC6)CC5CCCCCC[C@H](NC(=O)OC(C)(C)C)C(=O)N4C3)cc(-c3ccccc3)nc2c1` (stereo partly drawn) [Compound 18, (1S,4R,6R,13S,17R)-[4-Cyclobutanesulfonylaminocarbonyl-17-(7-methoxy-2-phenylquinolin-4-yloxy)-2,14-dioxo-3,15-diazatricyclo[13.3.0.0^4,6]octa-dec-13-yl]carbamic acid tert-butyl ester], the IC50 in assay [1] is below 50 nM. In addition, the EC50 in assay [2] is below 50 nM.
For `COc1ccc2c(O[C@@H]3C[C@H]4C(=O)N[C@]5(C(=O)NS(=O)(=O)C6CCC6)CC5CCCCCCC[C@H](NC(=O)OC(C)(C)C)C(=O)N4C3)cc(-c3ccccc3)nc2c1` (stereo partly drawn) [Compound 19, (1S,4R,6R,14S,18R)-[4-Cyclobutanesulfonylaminocarbonyl-18-(7-methoxy-2-phenylquinolin-4-yloxy)-2,15-dioxo-3,16-diazatricyclo-[14.3.0.0^4,6]nona-dec-14-yl]carbamic acid tert-butyl ester], in assay [1], the IC50 was below 50 nM. For the same molecule, the EC50 in assay [2] was below 50 nM.
Regarding `COc1ccc2c(O[C@@H]3C[C@H]4C(=O)N[C@]5(C(=O)NS(=O)(=O)C6CC6)CC5/C=C\CCCCC[C@H](NC(=O)NC(C)(C)C)C(=O)N4C3)cc(-c3ccccc3)nc2c1` (stereo partly drawn) [Compound 20, (1S,4R,6S,14S,18R)-7-cis-Cyclopropanesulfonic acid [14-(3-tert-butylureido)-18-(7-methoxy-2-phenyl-quinolin-4-yloxy)-2,15-dioxo-3,16-diazatricyclo[14.3.0.0^4,6]nona-dec-7-ene-4-carbonyl]amide], the IC50 in assay [1] is below 50 nM. Further, the EC50 in assay [2] is below 50 nM.
